Experiment [1] deals with cellular H3K36me2 level in multiple myeloma cell line KMS11 (t(4;14)+). The experiment in a line: H3K36me2 cellular ELISA assay in KMS11-Par line. To be noted: Homo sapiens, KMS-11; KMS11-Par line, ELISA, 72 hours; read-out: H3K36me2 ELISA in KMS11-Par. It is filed as cell-based. The method, then: H3K36Me2 Cellular ELISA Assay in KMS11-Par Line
An ELISA (enzyme-linked immunosorbent assay) based assay was used to test the ability of candidate compound to reduce cellular H3K36me2 level in multiple myeloma cell line KMS11 (t(4;14)+). KMS11 (Horizon Discovery Ltd.) cells are maintained in RPM11640 media with 12.5% FBS and 50 U/ml Penicillin-Streptomycin. For assay compound treatment, single cell suspension was prepared in Opti-MEM supplemented with B-27 and N2 supplement (Invitrogen 11058-021, 17504-044, 17502-048) for ELISA and in maintenance media for cellTiter Glo (CTG) viability assay. One day prior to cell treatment, 1,250 KMS11 cells were seeded into 384-well Greiner CellStar TC plate (Greiner #781086) at the final volume of 30 μL/well.
Cells were treated with tested compounds at the desired concentration for 72 hours. Crude histone lysate was extracted by 0.4M HCl following neutralization by 0.5M Sodium phosphate, dibasic (Na2HPO4), pH ˜12.5. Equal amount of histone lysate was loaded to Corning 384-well high biding plate (Corning #3577, black) for H3K36m2 and to Thermo 384-well high binding Nunc plate (Thermo #460372, white) for total H3.
Histone bound plates were washed and blocked with 5% BSA. […] The abundance of H3K36me2 and total H3 was measured by Chemiluminesce on a plate reader. Cell viability was monitored on a parallel seeded plate with CellTiter-Glo reagent (Promega #G7573).
Background: An ELISA detects its analyte on a solid surface through an enzyme-linked reagent.

The next experiment deals with NSD2 [1-1365] (Homo sapiens (Human), UniProt O96028). The experiment in a line: LC-MS/MS-based NSD2 enzymatic assay (SAH production). The class given is biochemical. As to conditions: read-out: NSD2 IC50. An outline of the steps: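 Full-length NSD2 [1-1365] (8 nM final) with 1 μM SAM and 400 nM mouse-liver nucleosome in Tris pH 8.0 buffer; inhibitor preincubated 20 min with enzyme/SAM before nucleosome addition. Reaction 90 min at room temperature, TFA-quenched; SAH quantified by LC-MS/MS against d4-SAH internal standard and SAH standard curve.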
Sequence of NSD2 [1-1365] (O96028 whole entry): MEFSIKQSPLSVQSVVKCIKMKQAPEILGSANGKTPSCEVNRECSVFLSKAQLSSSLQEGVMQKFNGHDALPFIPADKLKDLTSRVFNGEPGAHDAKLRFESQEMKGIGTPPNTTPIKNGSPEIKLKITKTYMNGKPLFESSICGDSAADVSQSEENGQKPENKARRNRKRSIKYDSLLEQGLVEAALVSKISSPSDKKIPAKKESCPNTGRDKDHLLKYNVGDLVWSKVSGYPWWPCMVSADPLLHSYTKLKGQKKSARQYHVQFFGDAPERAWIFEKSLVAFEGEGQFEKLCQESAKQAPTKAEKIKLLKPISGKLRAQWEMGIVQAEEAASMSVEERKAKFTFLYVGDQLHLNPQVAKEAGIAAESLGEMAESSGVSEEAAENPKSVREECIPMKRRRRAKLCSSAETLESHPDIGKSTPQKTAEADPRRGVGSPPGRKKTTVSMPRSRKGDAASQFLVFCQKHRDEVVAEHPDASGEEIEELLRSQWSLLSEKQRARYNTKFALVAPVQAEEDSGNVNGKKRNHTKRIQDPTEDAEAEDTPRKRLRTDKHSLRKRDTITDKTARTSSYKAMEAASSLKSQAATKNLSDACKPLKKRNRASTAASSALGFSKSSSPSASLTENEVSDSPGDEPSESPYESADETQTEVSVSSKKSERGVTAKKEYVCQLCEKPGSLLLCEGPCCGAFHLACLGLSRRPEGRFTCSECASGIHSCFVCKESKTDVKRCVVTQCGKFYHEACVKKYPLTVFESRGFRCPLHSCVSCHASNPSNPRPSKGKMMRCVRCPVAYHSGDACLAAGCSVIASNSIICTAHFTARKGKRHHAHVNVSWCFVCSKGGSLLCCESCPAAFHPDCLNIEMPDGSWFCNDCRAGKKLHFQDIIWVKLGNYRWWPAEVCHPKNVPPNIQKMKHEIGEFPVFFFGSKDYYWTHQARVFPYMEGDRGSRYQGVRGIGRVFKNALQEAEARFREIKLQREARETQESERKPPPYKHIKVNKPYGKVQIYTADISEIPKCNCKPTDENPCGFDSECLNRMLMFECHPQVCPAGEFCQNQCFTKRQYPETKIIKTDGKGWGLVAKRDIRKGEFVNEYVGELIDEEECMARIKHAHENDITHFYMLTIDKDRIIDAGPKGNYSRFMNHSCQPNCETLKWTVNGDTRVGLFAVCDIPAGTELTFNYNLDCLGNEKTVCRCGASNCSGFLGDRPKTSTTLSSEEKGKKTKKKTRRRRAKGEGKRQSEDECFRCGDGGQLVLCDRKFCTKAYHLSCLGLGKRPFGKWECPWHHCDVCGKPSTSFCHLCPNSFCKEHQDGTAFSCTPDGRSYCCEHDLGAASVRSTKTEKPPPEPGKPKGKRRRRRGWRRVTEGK

For `CCc1cccc([C@@]2(N)CCCN(c3cnc(C4CC4)cc3Cn3cnc4c(N)nccc43)C2)n1` [Example 252, (R)-1-((5-(3-amino-3-(6-ethylpyridin-2-yl)piperidin-1-yl)-2-cyclopropylpyridin-4-yl)methyl)-1H-imidazo[4,5-c]pyridin-4-amine], the IC50 in experiment [1] is 7250 nM; at NSD2 [1-1365], 10 to 1000 nM.

On to `Nc1ncnc2c1ncn2Cc1cc(-c2ccc(F)c(F)c2)ncc1N1CCCC(N)(c2cncc(Cl)n2)C1` (stereo not drawn) [Example 254, 9-((5-(3-amino-3-(6-chloropyrazin-2-yl)piperidin-1-yl)-2-(3,4-difluorophenyl)pyridin-4-yl)methyl)-9H-purin-6-amine], for which the IC50 was 1540 nM in experiment [1] and 10 to 1000 nM at NSD2 [1-1365].

Consider `Nc1ncnc2c1ncn2Cc1cc(-c2ccc(F)c(F)c2)ncc1N1CCCC(N)(c2cnccn2)C1` (stereo not drawn) [Example 259, 9-((5-(3-amino-3-(pyrazin-2-yl)piperidin-1-yl)-2-(3,4-difluorophenyl)pyridin-4-yl)methyl)-9H-purin-6-amine], for which the results for the IC50 (in experiment [1]; on NSD2 [1-1365]) were 3540 nM and 10 to 1000 nM, respectively.

As to `Nc1nccc2c1ncn2Cc1cc(-c2ccc(F)c(F)c2)ncc1N1CCC[C@](N)(c2cccc(C(F)F)n2)C1` [Example 260, (R)-1-((5-(3-amino-3-(6-(difluoromethyl)pyridin-2-yl)piperidin-1-yl)-2-(3,4-difluorophenyl)pyridin-4-yl)methyl)-1H-imidazo[4,5-c]pyridin-4-amine], the IC50 was 1520 nM in experiment [1] and 10 to 1000 nM at NSD2 [1-1365].

In the case of `Cc1cccc([C@@]2(N)CCCN(c3cnc(-c4ccc(F)cc4)cc3Cn3cnc4c(N)nccc43)C2)n1` [Example 261, (R)-1-((5-(3-amino-3-(6-methylpyridin-2-yl)piperidin-1-yl)-2-(4-fluorophenyl)pyridin-4-yl)methyl)-1H-imidazo[4,5-c]pyridin-4-amine], the IC50 is 235 nM in experiment [1] and 1 to 10 nM on NSD2 [1-1365].

For `Nc1nccc2c1ncn2Cc1cc(-c2ccc(F)c(F)c2)ncc1N1CCCC(N)(c2cccc(F)n2)C1` (stereo not drawn) [Example 262, 1-((5-(3-amino-3-(6-fluoropyridin-2-yl)piperidin-1-yl)-2-(3,4-difluorophenyl)pyridin-4-yl)methyl)-1H-imidazo[4,5-c]pyridin-4-amine], the IC50 in experiment [1] was 1330 nM; at NSD2 [1-1365], 10 to 1000 nM.

For the compound `Cc1cccc(C2(N)CCCN(c3cnc(C4CC4)cc3Cn3cnc4c(N)nccc43)C2)n1` (stereo not drawn) [Example 263, 1-((5-(3-amino-3-(6-methylpyridin-2-yl)piperidin-1-yl)-2-cyclopropylpyridin-4-yl)methyl)-1H-imidazo[4,5-c]pyridin-4-amine], the IC50 in experiment [1] is 4170 nM; at NSD2 [1-1365] it was 10 to 1000 nM.

As for `Nc1nccc2c1ncn2Cc1cc(C2CC2)ncc1N1CCC[C@](N)(c2cccc(C(F)F)n2)C1` [Example 264, (R)-1-((5-(3-amino-3-(6-(difluoromethyl)pyridin-2-yl)piperidin-1-yl)-2-cyclopropylpyridin-4-yl)methyl)-1H-imidazo[4,5-c]pyridin-4-amine], the IC50 in experiment [1] was 9630 nM; on NSD2 [1-1365], 10 to 1000 nM.

Consider `Nc1nccc2c1ncn2Cc1cc(-c2ccc(F)cc2)ncc1N1CCCC(N)(c2ccccn2)C1` (stereo not drawn) [Example 266, 1-((5-(3-amino-3-(pyridin-2-yl)piperidin-1-yl)-2-(4-fluorophenyl)pyridin-4-yl)methyl)-1H-imidazo[4,5-c]pyridin-4-amine], for which the IC50 in experiment [1] was 436 nM; at NSD2 [1-1365], 1 to 10 nM.

As for `Nc1nccc2c1ncn2Cc1cc(C2CCC2)ncc1N1CCCC(N)(c2cccc(Cl)n2)C1` (stereo not drawn) [Example 267, 1-((5-(3-amino-3-(6-chloropyridin-2-yl)piperidin-1-yl)-2-cyclobutylpyridin-4-yl)methyl)-1H-imidazo[4,5-c]pyridin-4-amine], the IC50 in experiment [1] was 1910 nM; at NSD2 [1-1365] it was 10 to 1000 nM.

With `Cn1cc([C@@]2(N)CCCN(c3cnc(-c4ccc(F)c(F)c4)cc3Cn3cnc4c(N)ncnc43)C2)cn1` [Example 269, (S)-9-((5-(3-amino-3-(1-methyl-1H-pyrazol-4-yl)piperidin-1-yl)-2-(3,4-difluorophenyl)pyridin-4-yl)methyl)-9H-purin-6-amine], the IC50 is 5680 nM in experiment [1] and 1 to 10 nM on NSD2 [1-1365].

On to `Cn1cc(C2(N)CCCN(c3cnc(-c4ccc(F)c(F)c4)cc3Cn3cnc4c(N)nccc43)C2)cn1` (stereo not drawn) [Example 270, 1-((5-(3-amino-3-(1-methyl-1H-pyrazol-4-yl)piperidin-1-yl)-2-(3,4-difluorophenyl)pyridin-4-yl)methyl)-1H-imidazo[4,5-c]pyridin-4-amine], for which the values for the IC50 (in experiment [1]; at NSD2 [1-1365]) were 15300 nM and 10 to 1000 nM, respectively.

For `Nc1ncnc2c1ncn2Cc1cc(-c2ccc(F)c(F)c2)ncc1N1CCCC(N)(c2cccnc2)C1` (stereo not drawn) [Example 271, 9-((5-(3-amino-3-(pyridin-3-yl)piperidin-1-yl)-2-(3,4-difluorophenyl)pyridin-4-yl)methyl)-9H-purin-6-amine], the IC50 was 33300 nM in experiment [1] and more than 1000 nM at NSD2 [1-1365].

With `CC(C)n1ccc([C@@]2(N)CCCN(c3cnc(-c4ccc(F)cc4)cc3Cn3cnc4c(N)ncnc43)C2)n1` [Example 274, (R)-9-((5-(3-amino-3-(1-isopropyl-1H-pyrazol-3-yl)piperidin-1-yl)-2-(4-fluorophenyl)pyridin-4-yl)methyl)-9H-purin-6-amine], the IC50 is 5540 nM in experiment [1] and 1 to 10 nM at NSD2 [1-1365].

Regarding `CCn1ccc(C2(N)CCCN(c3cnc(-c4ccc(F)cc4)cc3Cn3cnc4c(N)nccc43)C2)n1` (stereo not drawn) [Example 277, 1-((5-(3-amino-3-(1-ethyl-1H-pyrazo1-3-yl)piperidin-1-yl)-2-(4-fluorophenyl)pyridin-4-yl)methyl)-1H-imidazo[4,5-c]pyridin-4-amine], the results for the IC50 (in experiment [1]; on NSD2 [1-1365]) were 2200 nM and 10 to 1000 nM, respectively.

Consider `Nc1ncnc2c1ncn2Cc1cc(-c2ccc(F)c(F)c2)ncc1N1CCCC(N)(c2ccn(C3CC3)n2)C1` (stereo not drawn) [Example 278, 9-((5-(3-amino-3-(1-cyclopropyl-1H-pyrazol-3-yl)piperidin-1-yl)-2-(3,4-difluorophenyl)pyridin-4-yl)methyl)-9H-purin-6-amine], for which the IC50 is 475 nM in experiment [1] and 1 to 10 nM on NSD2 [1-1365].

Regarding `Nc1nccc2c1ncn2Cc1cc(-c2ccc(F)cc2)ncc1N1CCCC(N)(c2ccn(C3CC3)n2)C1` (stereo not drawn) [Example 280, 1-((5-(3-amino-3-(1-cyclopropyl-1H-pyrazol-3-yl)piperidin-1-yl)-2-(4-fluorophenyl)pyridin-4-yl)methyl)-1H-imidazo[4,5-c]pyridin-4-amine], the IC50 in experiment [1] is 1490 nM; at NSD2 [1-1365], 1 to 10 nM.

As for `Nc1ncnc2c1ncn2Cc1cc(-c2ccc(F)c(F)c2)ncc1N1CCCC(N)(C=C(F)F)C1` (stereo not drawn) [Example 294, 9-((5-(3-amino-3-(2,2-difluorovinyl)piperidin-1-yl)-2-(3,4-difluorophenyl)pyridin-4-yl)methyl)-9H-purin-6-amine], the IC50 in experiment [1] was 9440 nM; on NSD2 [1-1365] it was 10 to 1000 nM.

As for `Nc1ncnc2c1ncn2Cc1cc(-c2ccc(F)c(F)c2)ncc1N1CC[C@@H](O)[C@](N)(c2cccc(Cl)n2)C1` [Example 302, (3R,4R)-3-amino-1-(4-((6-amino-9H-purin-9-yl)methyl)-6-(3,4-difluorophenyl)pyridin-3-yl)-3-(6-chloropyridin-2-yl)piperidin-4-ol], the IC50 is 563 nM in experiment [1] and 10 to 1000 nM on NSD2 [1-1365].

As for `COCC1CC(N)CN(c2cnc(-c3ccc(F)c(F)c3)cc2Cn2cnc3c(N)ncnc32)C1` (stereo not drawn) [Example 308, 9-((5-(3-amino-5-(methoxymethyl)piperidin-1-yl)-2-(3,4-difluorophenyl)pyridin-4-yl)methyl)-9H-purin-6-amine], the IC50 was 27500 nM in experiment [1] and 10 to 1000 nM at NSD2 [1-1365].

`CN(C)C(=O)CC[C@@]1(N)CCCN(c2cnc(-c3ccc(F)c(F)c3)cc2Cn2cnc3c(N)ncnc32)C1` [Example 322, (S)-3-(3-amino-1-(4-((6-amino-9H-purin-9-yl)methyl)-6-(3,4-difluorophenyl)pyridin-3-yl)piperidin-3-yl)-N,N-dimethylpropanamide]: the IC50 in experiment [1] was more than 33700 nM; at NSD2 [1-1365] it was 10 to 1000 nM.

The values are drawn from patent publication US11420970B1 (NOVARTIS AG, priority 2019, dated 2022).
